Results published in the NIST ThermoML archive (doi:10.1016/j.jct.2004.05.001).
± gives the expanded uncertainty stated by the source.

Conditions: 298.15 K; 101.33 kPa; Liquid

SMILES	mass density
c1ccccc1 [benzene]	873.2 ± 0.9 kg/m3
CCCCCCCCCCCC [dodecane]	747 ± 4 kg/m3
CCCCCCC [heptane]	690.6 ± 1.6 kg/m3
CCCCCCn1cc[n+](C)c1.F[B-](F)(F)F [1-hexyl-3-methylimidazolium tetrafluoroborate]	1148.1 ± 5 kg/m3
CCCCCCCCCCCCCCCC [hexadecane]	771.5 ± 1.4 kg/m3
CCCCCCn1cc[n+](C)c1.F[P-](F)(F)(F)(F)F [1-hexyl-3-methylimidazolium hexafluorophosphate]	1293.5 ± 7 kg/m3
